Compound	melting point
CCc1cc2c(NC(C)c3ccccc3)ncnc2s1 (stereo not drawn)	141 °C
Cc1nc(NCCc2ccccc2)c2ccsc2n1 [Compound 1, 2-methyl-N-phenethylthieno[2,3-d]pyrimidin-4-amine]	111 °C
CCc1nc(NCCc2ccccc2)c2ccsc2n1 [Compound 2, 2-ethyl-N-phenethylthieno[2,3-d]pyrimidin-4-amine]	89 °C
Cc1nc(N2CCc3ccccc3C2)c2cc(C)sc2n1 [Compound 4, 2-(2,6-dimethylthieno[2,3-d]pyrimidin-4-yl)-1,2,3,4-tetrahydroisoquinoline]	105 °C
COc1cccc(CNc2nc(C)nc3sc(C)cc23)c1 [Compound 6, N-(3-methoxybenzyl)-2,6-dimethylthieno[2,3-d]pyrimidin-4-amine]	97 °C
CCc1nc(NCc2cccc(OC)c2)c2cc(C)sc2n1 [Compound 7, N-(3-methoxybenzyl)-2-ethyl-6-methylthieno[2,3-d]pyrimidin-4-amine]	108.4 °C
COc1ccc(CNc2nc(C)nc3sc(C)cc23)cc1 [Compound 8, N-(4-methoxybenzyl)-2,6-dimethylthieno[2,3-d]pyrimidin-4-amine]	127.5 °C
COc1ccc(CNc2nc(C)nc3sc(C)cc23)cc1OC [Compound 9, N-(3,4-dimethoxybenzyl)-2,6-dimethylthieno[2,3-d]pyrimidin-4-amine]	142 °C
Cc1nc(NCc2cccc(Cl)c2)c2cc(C)sc2n1 [Compound 10, N-(3-chlorobenzyl)-2,6-dimethylthieno[2,3-d]pyrimidin-4-amine]	136.5 °C
Cc1nc(NCC(=O)c2ccccc2)c2cc(C)sc2n1 [Compound 12, 2-(2,6-dimethylthieno[2,3-d]pyrimidin-4-ylamino)-1-phenylethanone]	159 °C
Cc1nc(NCCc2ccccc2)c2cc(C)sc2n1 [Compound 13, 2,6-dimethyl-N-phenethylthieno[2,3-d]pyrimidin-4-amine]	106 °C
Cc1cc2c(NCCc3ccccc3)nc(Cl)nc2s1 [Compound 14, 2-chloro-6-methyl-N-phenethylthieno[2,3-d]pyrimidin-4-amine]	119 °C
Cc1cc2c(NCCc3ccccc3)nc(N(C)C)nc2s1 [Compound 16, N2,N2,6-trimethyl-N4-phenethylthieno[2,3-d]pyrimidine-2,4-diamine]	142 °C
Cc1ccc(CCNc2nc(C)nc3sc(C)cc23)cc1 [Compound 19, N-(4-methylphenethyl)-2,6-dimethylthieno[2,3-d]pyrimidin-4-amine]	115 °C
CCc1ccc(CCNc2nc(C)nc3sc(C)cc23)cc1 [Compound 20, N-(4-ethylphenethyl)-2,6-dimethylthieno[2,3-d]pyrimidin-4-amine]	62 °C
Cc1nc(NCCc2cccc(C(F)(F)F)c2)c2cc(C)sc2n1 [Compound 21, N-(3-(trifluoromethyl)phenethyl)-2,6-dimethylthieno[2,3-d]pyrimidin-4-amine]	98.2 °C
Cc1nc(NCCc2cccc(O)c2)c2cc(C)sc2n1 [Compound 22, N-(3-hydroxyphenethyl)-2,6-dimethylthieno[2,3-d]pyrimidin-4-amine]	162.5 °C
Cc1nc(NCCc2ccc(O)cc2)c2cc(C)sc2n1 [Compound 23, 4-(2-(2,6-dimethylthieno[2,3-d]pyrimidin-4-ylamino)ethyl)phenol]	166 °C
COc1ccccc1CCNc1nc(C)nc2sc(C)cc12 [Compound 24, N-(2-methoxyphenethyl)-2,6-dimethylthieno[2,3-d]pyrimidin-4-amine]	134 °C
COc1cccc(CCNc2nc(C)nc3sc(C)cc23)c1 [Compound 25, N-(3-methoxyphenethyl)-2,6-dimethylthieno[2,3-d]pyrimidin-4-amine]	139 °C
CCc1nc(NCCc2cccc(OC)c2)c2cc(C)sc2n1 [Compound 26, N-(3-methoxyphenethyl)-2-ethyl-6-methylthieno[2,3-d]pyrimidin-4-amine]	83.5 °C

Reference: patent US20070275984A1, “Novel Thieno-Pyridine and Thieno-Pyrimidine Derivatives and Their Use as Positive Allosteric Modulators of Mglur2-Receptors” (JANSSEN PHARMACEUTICA N.V., priority 2004, published 2007)
